Experimental data published in ChEMBL document CHEMBL1126374, “Synthesis of -(S)-acylamino-N-(hydroxydioxocyclobutenyl)--lactams as potential antibiotics” (Bioorg Med Chem Lett, 1992).
Calls of active or inactive are those of the source. The rule behind the calls is not given here.

What was measured:
[1] = test system: Escherichia coli; test: Tested for antibacterial activity against Escherichia coli; IA - No useful antibacterial activity; type: functional, organism-based
[2] = Half life in pH 7 buffer solution was determined; type: ADME
[3] = test system: Staphylococcus aureus; test: Tested for antibacterial activity against Staphylococcus aureus; IA - No useful antibacterial activity; type: functional, organism-based
[4] = test system: Streptococcus pneumoniae; test: Tested for antibacterial activity against Streptococcus pneumoniae; IA - No useful antibacterial activity; type: functional, organism-based

half-life [2] [h]	Structure (SMILES)	Activity [1]	Activity [3]	Activity [4]
72	O=C(COc1ccccc1)N[C@H]1CN(c2c([O-])c(=O)c2=O)C1=O.[K+]	inactive	inactive	inactive
–	CO/N=C(/C(=O)N[C@H]1CN(c2c(O)c(=O)c2=O)C1=O)c1csc(N)n1	inactive	inactive	inactive
168	C[C@H]1[C@H](NC(=O)COc2ccccc2)C(=O)N1c1c([O-])c(=O)c1=O.[K+]	inactive	inactive	inactive
